Assays:
viral infection = details: cited from earlier work
[1] = tested on: NTM.V Ab in sera of HIV-positive and healthy individuals; experiment: ELISA IgG reactivity toward NTM peptide, non-heat-inactivated versus heat-inactivated sera; format: binding, human; details: compared with the same heat-inactivated sera
Experimental: The antibody binding of individual patient sera (measured by ELISA assay for heat-inactivated sera dilution 1:100) was presented by single point.
(a) Healthy individuals, and (b) HIV-positive patients.
Reactivity of sera collected from the healthy HIV-negative as well as HIV-positive individuals was examined after heat-inactivation at 40° C. and 56° C. The heat treatment of sera was performed in duration of 10, 20 and 30 minutes. Based on the obtained results (FIG. 14), it can be concluded that release of the NTM.V Ab from immune complexes is temperature and time dependent. In these experiments IgG reactivity toward two forms of the NTM peptide were monitored, i.e. uncoupled and BSA-coupled forms. The reactivity patterns of both NTM forms were similar.

[2] = tested on: natural anti-VIP antibodies in sera of HIV-negative asthma patients; details: sera of HIV-negative asthma patients with high titres of natural anti-VIP antibodies; cited from earlier work

Row | Sequence | blocking of viral infection (viral infection; in vivo as printed) | effect on lymphocyte function (viral infection; in vivo) | reactivity with non-heat-inactivated sera [1] | main end-point titre for hyperimmune sera [2] | reactivity of sera with the peptide [2]
1 | VVVRSLTFKTNKKT | effectively blocks viral infection | without impairing lymphocyte function | – | – | –
2 | RSANFTDNAKTIIVQLNESVEIN [NTM, HIV-1 gp120-derived natural peptide] | – | – | very low reactivity | 1/10000 | strong reactivity
